Data on 26 compounds can be found in ChEMBL document CHEMBL3046012, “Synthesis and Cytotoxic Activity of 6-(Substituted-Phenyl)Amino-5,8-Quinazolinediones” (Med Chem Res, 2004).

≈ marks a conversion by molar mass, not a printed value.

Common to all, as to assay type: functional, cell-based
Assay [1] concerns SK-OV-3. Nature of the assay: Cytotoxicity against Homo sapiens (human) SKOV3 cells after 72 hr by MTT assay. Conditions: SK-OV-3, 72 h.
Assay [2] deals with A549. Nature of the assay: Cytotoxicity against Homo sapiens (human) A549 cells after 72 hr by MTT assay. Conditions: A549, 72 h.
Assay [3] has as its system HCT-15. Nature of the assay: Cytotoxicity against Homo sapiens (human) HCT15 cells after 72 hr by MTT assay. Conditions: HCT-15, 72 h.
The subject of assay [4] is XF498. Kind of assay: Cytotoxicity against Homo sapiens (human) XF498 cells after 72 hr by MTT assay. Conditions: XF498, 72 h. On the technique in general: Tetrazolium assays rely on reduction of a dye to a coloured formazan, in cell work by metabolically active cells.
The subject of assay [5] is SK-MEL-2. Nature of the assay: Cytotoxicity against Homo sapiens (human) SK-MEL-2 cells after 72 hr by MTT assay. As to conditions: SK-MEL-2, 72 h.

Usually IC50 stands for the concentration at which inhibition is half-maximal.

Turning to `O=C1C(Cl)=C(Nc2ccc(Cl)cc2)C(=O)c2cnccc21`, the IC50 came out at 0.97 µg/mL (≈ 3.04 µM) in assay [1]; 1.1 µg/mL (≈ 3.45 µM) in assay [2]; 0.18 µg/mL (≈ 0.564 µM) in assay [3]; 1.28 µg/mL (≈ 4.01 µM) in assay [4]; 0.66 µg/mL (≈ 2.07 µM) in assay [5].
Turning to `Cc1ccc(NC2=CC(=O)c3ncncc3C2=O)cc1`, the IC50 in assay [1] was determined as 0.03 µg/mL (≈ 0.113 µM); in assay [2], 0.02 µg/mL (≈ 0.0754 µM); in assay [3], 0.01 µg/mL (≈ 0.0377 µM); in assay [4] it was 0.13 µg/mL (≈ 0.49 µM); in assay [5], 0.02 µg/mL (≈ 0.0754 µM).
Consider `CCOc1ccc(NC2=C(Cl)C(=O)c3ncncc3C2=O)cc1`, for which the IC50 in assay [1] worked out at 0.22 µg/mL (≈ 0.667 µM); in assay [2], 0.33 µg/mL (≈ 1 µM); in assay [3] it was 0.04 µg/mL (≈ 0.121 µM); in assay [4] it was 0.3 µg/mL (≈ 0.91 µM); in assay [5] it was 0.08 µg/mL (≈ 0.243 µM).
On to `O=C1C(Nc2ccc(I)cc2)=CC(=O)c2ncncc21`, for which the IC50 is 0.04 µg/mL (≈ 0.106 µM) in assay [1]; 0.27 µg/mL (≈ 0.716 µM) in assay [2]; 0.01 µg/mL (≈ 0.0265 µM) in assay [3]; 0.04 µg/mL (≈ 0.106 µM) in assay [4]; 0.02 µg/mL (≈ 0.053 µM) in assay [5].
Regarding `O=C1C(Nc2ccc(C(F)(F)F)cc2)=C(Cl)C(=O)c2ncncc21`, the half-maximal inhibitory concentration (IC50) in assay [1] was 0.21 µg/mL (≈ 0.594 µM); in assay [2], 0.32 µg/mL (≈ 0.905 µM); in assay [3], 0.03 µg/mL (≈ 0.0848 µM); in assay [4] it was 0.29 µg/mL (≈ 0.82 µM); in assay [5] it was 0.06 µg/mL (≈ 0.17 µM).
In the case of `CCOc1ccc(NC2=CC(=O)c3ncncc3C2=O)cc1`, the concentration for half-maximal inhibition (IC50) in assay [1] was found to be 0.02 µg/mL (≈ 0.0677 µM); in assay [2] it was 0.16 µg/mL (≈ 0.542 µM); in assay [3] it was 0.02 µg/mL (≈ 0.0677 µM); in assay [4] it was 0.03 µg/mL (≈ 0.102 µM); in assay [5], 0.02 µg/mL (≈ 0.0677 µM).
In the case of `O=C1C(Nc2ccccc2)=C(Cl)C(=O)c2ncccc21`, the IC50 in assay [1] was 1.34 µg/mL (≈ 4.71 µM); in assay [2], 2.3 µg/mL (≈ 8.08 µM); in assay [3], 0.74 µg/mL (≈ 2.6 µM); in assay [4], 1.33 µg/mL (≈ 4.67 µM); in assay [5] it was 1.42 µg/mL (≈ 4.99 µM).
On the same counts, the results for `O=C1C(Nc2ccc(Cl)cc2)=C(Cl)C(=O)c2ncncc21` are 0.31 µg/mL (≈ 0.968 µM), 0.3 µg/mL (≈ 0.937 µM), 0.29 µg/mL (≈ 0.906 µM), 0.4 µg/mL (≈ 1.25 µM) and 0.3 µg/mL (≈ 0.937 µM).
On the same counts, the results for `O=C1C(Nc2ccc(Br)cc2)=CC(=O)c2ncncc21` are 0.02 µg/mL (≈ 0.0606 µM), 0.09 µg/mL (≈ 0.273 µM), 0.01 µg/mL (≈ 0.0303 µM), 0.03 µg/mL (≈ 0.0909 µM) and 0.02 µg/mL (≈ 0.0606 µM).
For the compound `O=C1C(Nc2ccc(Br)cc2)=C(Cl)C(=O)c2ncccc21`, the 50% inhibitory concentration (IC50) in assay [1] was 0.92 µg/mL (≈ 2.53 µM); in assay [2], 4.28 µg/mL (≈ 11.8 µM); in assay [3], 0.34 µg/mL (≈ 0.935 µM); in assay [4], 2.83 µg/mL (≈ 7.78 µM); in assay [5] it was 1.26 µg/mL (≈ 3.47 µM).
For `O=C1C(Nc2ccc([N+](=O)[O-])cc2)=C(Cl)C(=O)c2ncncc21`, in that order: 1.28 µg/mL (≈ 3.87 µM), 2.77 µg/mL (≈ 8.38 µM), 0.3 µg/mL (≈ 0.907 µM), 15.4 µg/mL (≈ 46.4 µM) and 0.61 µg/mL (≈ 1.84 µM).
Turning to `O=C1C(Nc2ccc(F)cc2)=CC(=O)c2ncncc21`, the IC50 was 0.07 µg/mL (≈ 0.26 µM) in assay [1]; 1.08 µg/mL (≈ 4.01 µM) in assay [2]; 0.02 µg/mL (≈ 0.0743 µM) in assay [3]; 0.04 µg/mL (≈ 0.149 µM) in assay [4]; 0.05 µg/mL (≈ 0.186 µM) in assay [5].
On the same counts, the results for `O=C1C(Cl)=C(Nc2ccc(Br)cc2)C(=O)c2cnccc21` are 0.29 µg/mL (≈ 0.798 µM), 1.96 µg/mL (≈ 5.39 µM), 0.1 µg/mL (≈ 0.275 µM), 0.22 µg/mL (≈ 0.605 µM) and 0.23 µg/mL (≈ 0.633 µM).
On to `O=C1C(Nc2ccc(F)cc2)=C(Cl)C(=O)c2ncncc21`, for which the half-maximal inhibitory concentration (IC50) was determined as 0.27 µg/mL (≈ 0.889 µM) in assay [1]; 0.33 µg/mL (≈ 1.09 µM) in assay [2]; 0.04 µg/mL (≈ 0.132 µM) in assay [3]; 0.19 µg/mL (≈ 0.626 µM) in assay [4]; 0.08 µg/mL (≈ 0.263 µM) in assay [5].
For the compound `O=C1C(Cl)=C(Nc2ccc(I)cc2)C(=O)c2cnccc21`, the IC50 in assay [1] stood at 0.04 µg/mL (≈ 0.0974 µM); in assay [2], 0.27 µg/mL (≈ 0.658 µM); in assay [3], 0.01 µg/mL (≈ 0.0244 µM); in assay [4] it was 0.04 µg/mL (≈ 0.0974 µM); in assay [5], 0.02 µg/mL (≈ 0.0487 µM).
Consider `O=C1C(Nc2ccc(F)cc2)=C(Cl)C(=O)c2ncccc21`, for which the half-inhibitory concentration (IC50) is 0.5 µg/mL (≈ 1.65 µM) in assay [1]; 1.25 µg/mL (≈ 4.13 µM) in assay [2]; 0.18 µg/mL (≈ 0.595 µM) in assay [3]; 0.36 µg/mL (≈ 1.19 µM) in assay [4]; 1.39 µg/mL (≈ 4.59 µM) in assay [5].
Consider `O=C1C(Nc2ccc(Cl)cc2)=CC(=O)c2ncncc21`, for which the IC50 in assay [1] is 0.01 µg/mL (≈ 0.035 µM); in assay [2], 0.02 µg/mL (≈ 0.07 µM); in assay [3] it was less than 0.01 µg/mL; in assay [4], 0.01 µg/mL (≈ 0.035 µM); in assay [5], 0.01 µg/mL (≈ 0.035 µM).
On to `N#Cc1ccc(NC2=C(Cl)C(=O)c3ncncc3C2=O)cc1`, for which the IC50 in assay [1] was 0.31 µg/mL (≈ 0.998 µM); in assay [2], 1.34 µg/mL (≈ 4.31 µM); in assay [3], 0.24 µg/mL (≈ 0.772 µM); in assay [4], 1.68 µg/mL (≈ 5.41 µM); in assay [5] it was 0.62 µg/mL (≈ 2 µM).
Turning to `O=C1C(Cl)=C(Nc2ccc(F)cc2)C(=O)c2cnccc21`, the half-maximal inhibitory concentration (IC50) in assay [1] came out at 1.86 µg/mL (≈ 6.14 µM); in assay [2], 1.27 µg/mL (≈ 4.2 µM); in assay [3] it was 0.31 µg/mL (≈ 1.02 µM); in assay [4] it was 1.54 µg/mL (≈ 5.09 µM); in assay [5], 1.22 µg/mL (≈ 4.03 µM).
As for `O=C1C(Nc2ccccc2)=C(Cl)C(=O)c2ncncc21`, the half-maximal inhibitory concentration (IC50) was 0.19 µg/mL (≈ 0.665 µM) in assay [1]; 0.33 µg/mL (≈ 1.16 µM) in assay [2]; 0.03 µg/mL (≈ 0.105 µM) in assay [3]; 0.28 µg/mL (≈ 0.98 µM) in assay [4]; 0.04 µg/mL (≈ 0.14 µM) in assay [5].
Consider `O=C1C(Nc2ccc(Cl)cc2)=C(Cl)C(=O)c2ncccc21`, for which the IC50 in assay [1] is 1.33 µg/mL (≈ 4.17 µM); in assay [2], 5.03 µg/mL (≈ 15.8 µM); in assay [3], 0.34 µg/mL (≈ 1.07 µM); in assay [4] it was 3.31 µg/mL (≈ 10.4 µM); in assay [5], 1.3 µg/mL (≈ 4.07 µM).
For `O=C1C(Nc2ccc(I)cc2)=C(Cl)C(=O)c2ncccc21`, in that order: 1.62 µg/mL (≈ 3.95 µM), 4.29 µg/mL (≈ 10.4 µM), 1.27 µg/mL (≈ 3.09 µM), 3.61 µg/mL (≈ 8.79 µM) and 3.3 µg/mL (≈ 8.04 µM).
For `O=C1C(Nc2ccc(OC(F)(F)F)cc2)=C(Cl)C(=O)c2ncncc21`, the IC50 is 0.27 µg/mL (≈ 0.73 µM) in assay [1]; 0.37 µg/mL (≈ 1 µM) in assay [2]; 0.22 µg/mL (≈ 0.595 µM) in assay [3]; 0.23 µg/mL (≈ 0.622 µM) in assay [4]; 0.29 µg/mL (≈ 0.784 µM) in assay [5].
Regarding `O=C1C(Nc2ccccc2)=CC(=O)c2ncncc21`, the half-maximal inhibitory concentration (IC50) in assay [1] was less than 0.01 µg/mL; in assay [2], 0.02 µg/mL (≈ 0.0796 µM); in assay [3], 0.01 µg/mL (≈ 0.0398 µM); in assay [4], 0.01 µg/mL (≈ 0.0398 µM); in assay [5] it was 0.01 µg/mL (≈ 0.0398 µM).
In the case of `O=C1C(Nc2ccc(I)cc2)=C(Cl)C(=O)c2ncncc21`, the IC50 in assay [1] was found to be 0.27 µg/mL (≈ 0.656 µM); in assay [2], 1.51 µg/mL (≈ 3.67 µM); in assay [3], 0.28 µg/mL (≈ 0.68 µM); in assay [4], 1.33 µg/mL (≈ 3.23 µM); in assay [5] it was 0.3 µg/mL (≈ 0.729 µM).
Take `Cc1ccc(NC2=C(Cl)C(=O)c3ncccc3C2=O)cc1`: the IC50 in assay [1] is 1.27 µg/mL (≈ 4.25 µM); in assay [2], 1.14 µg/mL (≈ 3.82 µM); in assay [3] it was 0.33 µg/mL (≈ 1.1 µM); in assay [4], 1.26 µg/mL (≈ 4.22 µM); in assay [5], 0.42 µg/mL (≈ 1.41 µM).
